In patent EP0356739B1, “Recombinant DNA, microorganism carrying said recombinant DNA, and process for producing L-amino acids by the use of said microorganism” (AJINOMOTO CO., INC., priority 1988, dated 1990):

Experiments:
[1] = system: acetohydroxy acid synthase; assay: Acetohydroxy acid synthase activity of crude enzyme solution from transformant AJ12403/pAJ220V3, with amino acid added (feedback inhibition); assay type: biochemical, Brevibacterium lactofermentum; details: Amino acid added (5mM); crude enzyme of strain AJ12403/pAJ220V3; 65mM phosphate buffer, 100mM sodium pyruvate
Description: (§1) In order to confirm that the DNA donor strain or transformant imparted with resistance to antagonist contains a mutant-type gene that codes for acetohydroxy acid synthase with reduced feedback inhibition by L-valine, L-leucine or L-isoleucine, it is necessary to prepare an enzyme solution from that antagonist-resistant strain or transformant, to allow this solution to act upon pyruvic acid ( as substrate ) in the presence of L-valine, L-leucine or L-isoleucine, and to measure the amount of 2-acetolactic acid formed.
(§2) A strain being tested was cultivated in production medium (A) for about 18 hours, the grown cells were ultrasonicated, and the resulting solution was centrifuged at 15,000 r.p.m. for 20 minutes.
(§3) The supernatant thus obtained was used as a crude enzyme solution, which was added to a solution containing 65mM phosphate buffer and 100mM sodium pyruvate to effect enzymic reaction. Acetolactic acid thus formed was converted to acetoin, and the color developed by addition of 2-naphthol was measured at 530 nm.

[2] = system: acetohydroxy acid synthase; assay: Acetohydroxy acid synthase activity of crude enzyme solution from wild-type strain ATCC13869, with amino acid added (feedback inhibition); assay type: biochemical, Brevibacterium lactofermentum; details: Amino acid added (5mM), 65mM phosphate buffer, 100mM sodium pyruvate
Description: as §1, §2, §3

| SMILES | relative activity values (%) when the activity in the absence of amino acid is taken as 100 [1] | relative activity values (%) when the activity in the absence of amino acid is taken as 100 [2] |
| --- | --- | --- |
| CC[C@H](C)[C@H](N)C(=O)O [L-Ile, L-isoleucine] | 101% | 60% |
| CC(C)C[C@H](N)C(=O)O [L-Leu, L-leucine] | 119% | 67% |
| CC(C)[C@H](N)C(=O)O [L-Val, L-valine] | 108% | 60% |
